# From PMC11341980, “Dual TTK/PLK1 inhibition has potent anticancer activity in TNBC as monotherapy and in combination” (Frontiers in Oncology, 2024)
# Marks after values point to notes of the source that are not given here.
# Experiments:
# [1] = system: KT-associated BubR1; test: Immunofluorescence of BubR1 at kinetochores in HT29 cells; type: cell-based; details: nocodazole-blocked mitotic HT29 cells, 1 hour, GI50 concentration
# Method: Immunoblotting, SAC co-immunoprecipitation assays and immunofluorescence microscopy were performed using standard procedures as outlined in the Supplementary Information .
# Cells were seeded on 13-mm glass coverslips in full medium and left to adhere O/N. After the appropriate treatments, cells were fixed with ice-cold 100% methanol for 5 min at -20°C and then rehydrated in PBS for 10 min. Coverslips were blocked for 30 min with 3% BSA (w/v) in PBS (BP) and then incubated with a 1:100 or 1:1000 dilution of BubR1 or CENP-C primary antibodies in BP, respectively, for 1 h in a moist environment. […] Images were projected (maximum intensity projection) using the NIS Elements AR software (Nikon) and quantification was performed using the General Analysis 2 tool. The quantification process comprised the following steps: selection of mitotic cells via intensity measurement of a threshold DAPI signal; generation of a kinetochore mask based on the intensity of bright spots (CENPC signal) inside the selected nuclei; generation of a tertiary mask for the BubR1 signal at kinetochores and BubR1 background measurements in the selected nuclei; export of reference images and signal intensities per cell.
# [2] = system: HT29 cells; test: Cell growth assay, GI50s used for SAC analyses; type: cell-based; details: Homo sapiens, HT-29; 120 h cell growth assay
# Method: Cell lines were seeded in appropriate culture medium into 96-well plates and 9 serial compound dilutions (0.004 – 1 μM) were added 24 h later for 120 h. Residual cells were stained with crystal violet or YO-PRO (Molecular Probes, #Y-3603). GI50 values were calculated by fitting the data to a sigmoidal dose–response model with a variable slope using GraphPad Prism software after subtraction of the starting control signal.
# [3] = system: MDA-MB-231 xenograft; set-up: method as in PMID 28270606; details: daily dosing, MDA-MB-231 xenografted mice; cited from earlier work
# [4] = system: BR1282 TNBC PDX; details: paclitaxel 15 mg/kg, QW, IV alone
# Method: (§1) Animal studies were performed by Charles-River Laboratories (Wilmington, Massachusetts, USA; MDA-MB-231 xenograft experiments) or Crown Biosciences Inc, (Taicang, China; SK-OV-3 xenograft and TNBC PDX screening experiments). All studies were performed in adherence with local ethical rules.
# 5x10^6 MDA-MB-231 cells were injected subcutaneously (s.c.) in the flank of NCr nude mice (n=8-15/group for efficacy experiments, n=2-3/group for tumor pharmacodynamic evaluation), 1x10^7 SK-OV-3 cells were injected s.c. in the flank of Balb/c nude mice (n=8/group) and specific PDX tumor fragments (3x3x3 mm^3) were inoculated s.c. in the flank of Balb/c nude mice or NOD/SCID mice (n=4-5/group for efficacy screening and tumor pharmacodynamic experiments, n=8/group for combination experiments). Mice were randomly grouped based on a mean tumor volume (TV) of 100-200 mm^3. For dedicated pharmacodynamic studies, treatment began with TVs of ~400 mm^3. Mice were culled when individual tumors exceeded 1500 mm^3 or if the body-weight loss (BWL) was >15% for 3 consecutive days or reached 20%. Dosing holidays were given to allow recovery for BWL >10%. When the endpoint was reached, mice were culled and plasma and tissue samples obtained. Samples were snap frozen and stored at -80 °C. In some cases, tumors were formalin-fixed and paraffin-embedded (FFPE) following standard procedures. […] Paclitaxel (6 mg/mL) was prepared using the clinical formulation (Cremophor-EL) and diluted in 0.9% saline just prior to use. Carboplatin was prepared in 5% glucose in pure water. Dosing and combination regimens for each specific experiment are outlined in the text.
# BW is presented as the % ΔBW and as the fractional-change (endpoint/treatment-start) for each group. As an assessment of synergy, the Clarke-Combination-Index (CCI) was applied ([32]) where a CCI of <-0.1 was considered synergistic, >+0.1 antagonistic, and in-between, additive.
# Paclitaxel (15 mg/kg) was administered IV QW to BR1282 PDX-bearing mice. […]
# [5] = system: BR1282 TNBC PDX; test: BR1282 PDX combination with carboplatin; type: in vivo, mice; details: carboplatin 60 mg/kg, IV, QW
# Method: Samples were snap frozen and stored at -80 °C. […] Carboplatin was prepared in 5% glucose in pure water.
# [6] = system: SK-OV-3 ovarian cell-derived xenograft; test: SK-OV-3 xenograft combination study with carboplatin; details: carboplatin 60 mg/kg, QW, IV alone
# Method: as §1
# 5x10^6 MDA-MB-231 cells were injected subcutaneously (s.c.) in the flank of NCr nude mice (n=8-15/group for efficacy experiments, n=2-3/group for tumor pharmacodynamic evaluation), 1x10^7 SK-OV-3 cells were injected s.c. in the flank of Balb/c nude mice (n=8/group) and specific PDX tumor fragments (3x3x3 mm^3) were inoculated s.c. in the flank of Balb/c nude mice or NOD/SCID mice (n=4-5/group for efficacy screening and tumor pharmacodynamic experiments, n=8/group for combination experiments). Mice were randomly grouped based on a mean tumor volume (TV) of 100-200 mm^3. For dedicated pharmacodynamic studies, treatment began with TVs of ~400 mm^3. Mice were culled when individual tumors exceeded 1500 mm^3 or if the body-weight loss (BWL) was >15% for 3 consecutive days or reached 20%. Dosing holidays were given to allow recovery for BWL >10%. When the endpoint was reached, mice were culled and plasma and tissue samples obtained. Samples were snap frozen and stored at -80 °C. In some cases, tumors were formalin-fixed and paraffin-embedded (FFPE) following standard procedures. […]
# [7] = system: HT29 cells; test: Flow cytometry cell cycle analysis; type: cell-based; details: nocodazole treatment
# Method: Cells were fixed in 70% high grade ethanol, washed in PBS, incubated in propidium iodide (PI) solution (50 μg/mL PI and 0.5 mg/mL RNAse A, Sigma-Aldrich, in PBS) for 30 min and analyzed using a BD FACSCanto II flow cytometer (BD Biosciences).
structure (smiles),measurement,setting,value
Cc1cc(-c2cnn3c(NC[C@H]4C[C@@](C)(O)C4)cc(Oc4cccnc4)nc23)ccc1C(=O)NC1CC1 [CFI-402257],reduction in KT-associated BubR1,[1],Some reduction
same,GI50,[2],31 to 38 nM
same,maximum tumor growth inhibition,[3],89%
CC(=O)O[C@H]1C(=O)[C@@]2(C)[C@H]([C@H](OC(=O)c3ccccc3)[C@]3(O)C[C@H](OC(=O)[C@H](O)[C@@H](NC(=O)c4ccccc4)c4ccccc4)C(C)=C1C3(C)C)[C@]1(OC(C)=O)CO[C@@H]1C[C@@H]2O [Paclitaxel],Efficacy ΔT/C (day 16),[4]; Study 1,0.24
same,Regressions (%) (end of treatment day),"[4]; Study 1, day 37, regressions in 1/8 mice",30 (37)* %
same,Efficacy ΔT/C (day 13),[4]; Study 2,0.48
N.N.O=C([O-])C1(C(=O)[O-])CCC1.[Pt+2] [Carboplatin],antitumor activity of monotherapy,[5],without activity
same,Efficacy ΔT/C (day 23),[6],0.72
same,Tolerability ΔT/C (day 23),[6]; body weight,0.97
CN1CCN(c2ccc(OC(F)(F)F)c(Nc3ncc4c(n3)-c3c(c(C(N)=O)nn3CCO)CC4)c2)CC1 [onvansertib],reduction in KT-associated BubR1,[1],minor effects
same,GI50,[2],14 nM
COC(=O)Nc1nc2ccc(C(=O)c3cccs3)cc2[nH]1 [nocodazole],accumulation in G2/M of the cell cycle,[7],67%
